Residues, ends and D or L forms follow the SMILES beside them.
Columns and labels:
[1] = biological target: bovine serum albumin (BSA) (Bos taurus, UniProt P02769); assay: Fluorescence anisotropy titration with BSA; conditions: for binding to BSA (change in anisotropy): titration with BSA, FIG. 4
Excerpt: For determining the affinity constant (Kd) of a fluorophore to target protein, we chose fluorescence anisotropy titrations.
Excitation was specific for coumarin (328 nm), and emission at 393 nm.
To determine whether a neighbouring group (here, Gly) on Fmoc affects binding to BSA, a similar experiment was run with Fmoc-Gly-OH (Nova Biochem). The intrinsic fluorescing properties of Fmoc were used for the anisotropy experiments.
To determine whether a neighbouring hydrophobic bulky group has an enhancing or adverse effect on BSA binding, Fmoc-Phe-OH was tested as above.
The solid phase resin employed was PAL-PEG-PS from Applied Biosystems. […] All peptides were capped with an N-terminal Fmoc, and a C-terminal amide (NH2). After cleavage, peptides were lyophilised, and solubilised in 5 mL of DMF. 100 μl of this was loaded onto an analytical C18 column using a Waters HPLC, using methanol and water (both in the presence of 0.1% TFA) as solvents. […] The peptide concentration in the cuvette was 200 nM.
Excitation was at 299 nm (to minimise Trp absorption), and emission at 320 nm. Slit widths were at 5 and 12 nm, respectively.
Peptide concentrations were estimated by the absorbance at 299 nm, using the extinction coefficient of 4700/M/cm. Excitation was at 299 nm, and emission was set to 320 nm, at slit widths of 5 and 12 nm, respectively.

Kallikrein = biological target: T1, Kallikrein (Homo sapiens, UniProt P03952); assay: Kallikrein assays (Z-Phe-Arg-amc substrate); format: biochemical; conditions: IC50 for inhibition of kallikrein activity, 0.1 nM kallikrein, 100 μM substrate, 30° C.
T1 construct: purchased Sigma Aldrich
T1 sequence (P03952 20-638): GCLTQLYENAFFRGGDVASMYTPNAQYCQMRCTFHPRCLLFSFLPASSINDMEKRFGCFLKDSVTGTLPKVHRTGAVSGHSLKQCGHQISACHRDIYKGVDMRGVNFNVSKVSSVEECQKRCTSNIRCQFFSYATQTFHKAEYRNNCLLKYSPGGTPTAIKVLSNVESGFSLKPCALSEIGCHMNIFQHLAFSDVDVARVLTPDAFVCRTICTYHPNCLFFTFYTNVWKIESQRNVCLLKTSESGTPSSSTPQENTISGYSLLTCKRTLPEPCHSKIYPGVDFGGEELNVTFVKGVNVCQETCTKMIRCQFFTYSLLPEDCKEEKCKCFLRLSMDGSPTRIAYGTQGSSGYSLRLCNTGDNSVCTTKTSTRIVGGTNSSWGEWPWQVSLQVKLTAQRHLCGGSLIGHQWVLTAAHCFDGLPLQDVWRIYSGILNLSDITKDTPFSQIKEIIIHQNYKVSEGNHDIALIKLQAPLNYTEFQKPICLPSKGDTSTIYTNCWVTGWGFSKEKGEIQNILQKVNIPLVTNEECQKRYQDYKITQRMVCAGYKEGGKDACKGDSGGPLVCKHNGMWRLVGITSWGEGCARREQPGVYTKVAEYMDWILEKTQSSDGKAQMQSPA
Protocol: Enzymes were purchased from Sigma Aldrich and substrates from Bachem A G. The assay buffer is composed of 10 mM Tris pH 7.4, 150 mM NaCl, 10 mM MgCl2, 1 mM CaCl2, 0.1% BSA, 0.01% Triton X100 and 5% DMSO. Enzymes are incubated with inhibitors for 30 minutes at RT prior to addition of substrate. All experiments were recorded at 30° C. for 90 minutes.
Assays were performed on a BMG Pherastar plate reader at wavelengths of exc/em 350/450 nm. Kallikrein was bought as a solution of 1080 μg/mL and diluted to a working concentration of 0.3 nM in assay buffer. Substrate Z-Phe-Arg-amc was solubilised at the stock concentration of 10 mM in DMSO and diluted to a working concentration of 300 μM with assay buffer. Inhibitors were solubilised in assay buffer to a stock concentration of 60 μM. 50 μL of each reagent is introduced in wells for a final volume of 150 μL per well. Final concentration of kallikrein in assay is 0.1 nM and substrate is 100 μM.
Final concentrations of inhibitors were: 0.5 nM, 1 nM, 2 nM, 5 nM, 8 nM, 10 nM, 20 nM, 50 nM, 80 nM, 100 nM, 200 nM, 500 nM, 800 nM, 1 μM, 2 μM, 5 μM, 8 μM, 10 μM and 20 μM. The initial rate of the reaction is obtained by plotting fluorescence=f (time) data and by fitting a linear trendline for each concentration of inhibitor. The inhibition curves are obtained by plotting initial rate=f ([I]) and IC50 values can be evaluated.

Cathepsin G = biological target: T2, Cathepsin G (Homo sapiens, UniProt P08311); assay: Peptide conjugate digestion with Cathepsin G; format: in vitro ADME; parameters: key to the marks not given beside the values; conditions: 37° C. for 1 hr
T2 sequence (P08311 21-244): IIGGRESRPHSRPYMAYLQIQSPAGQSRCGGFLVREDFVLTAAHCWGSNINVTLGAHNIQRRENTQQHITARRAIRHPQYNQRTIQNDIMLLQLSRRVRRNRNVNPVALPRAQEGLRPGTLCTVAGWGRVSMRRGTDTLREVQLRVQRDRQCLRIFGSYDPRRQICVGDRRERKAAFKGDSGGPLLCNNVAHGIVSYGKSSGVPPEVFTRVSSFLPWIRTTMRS
Protocol: (§1) Linear peptides (PK15 and CG4L1-PK15L1) were first treated with iodoacetamide prior to digestion studies. The peptides (ca 3-4 mg) were purified by HPLC (semi-prep Proteo column as described in general methods), and the HPLC fraction (ca 3 ml) was neutralised with an equal volume of 50 mM ammonium bicarbonate. […] The reaction mixture was concentrated (rotary evaporator) and re-purified by HPLC as above.
(§2) Peptides (linear and conjugates) were dissolved in water at a concentration of 1 mg/ml, giving an effective concentration of −0.5 mM stock solutions. 2 μl of peptide conjugates (˜30 μM in reactions depending on actual molecular weight) where dissolved in reaction buffer (see below) in a total reaction volume of 30 μl, followed by the protease, and samples were incubated at 37° C. for 1 hr. 10 μl aliquots were quenched into 20 μl of 10% dichloroacetic acid in MeCN/H2O (1:1) and stored at −20° C. for 30 minutes, centrifuged at 4° C. (13000 rpm) for 5 minutes and then spotted onto MALDI-TOF mass spectrometer plate for analysis.
(§3) All reactions at 37° C. Cathepsin G and kalikrein reactions were carried out in 10 mM Tris pH 7.4, 150 mM NaCl, 10 mM MgCl2, 1 mM CaCl2, 0.1% BSA, 0.01% Triton X100, 5% DMSO. Chymotrypsin reactions were carried out in 100 mM Tris pH 7.4, 10 mM CaCl2. Pronase and proteinase K reactions were carried out in 100 mM Tris pH 7.4, 0.5% SDS. Subtilisin reactions were carried out in 50 mM KH2PO4 pH 7.5. Trypsin reactions were carried out in 67 mM sodium phosphate pH 7.6. Reaction conditions with serum involve dissolving the peptide in 1×PBS (total volume 24 μl) and 6 μl of human serum added to the reaction.

Chymotrypsin = assay: Peptide conjugate digestion with Chymotrypsin; format: in vitro ADME; conditions: 37° C. for 1 hr
Protocol: as §1, §2, §3

Kalikrein = Kalikrein (Homo sapiens, UniProt P03952); assay: Peptide conjugate digestion with Kalikrein; format: in vitro ADME; parameters: digestion with Kalikrein: key to the marks not given beside the values; conditions: 37° C. for 1 hr
Sequence of Kalikrein (P03952 20-638): as the sequence (P03952 20-638) above
Protocol: as §1, §2, §3

Pronase = assay: Peptide conjugate digestion with Pronase; format: in vitro ADME; parameters: key to the marks not given beside the values; conditions: 37° C. for 1 hr
Protocol: as §1, §2, §3

Subtilisin = assay: Peptide conjugate digestion with Subtilisin; format: in vitro ADME; conditions: 37° C. for 1 hr
Protocol: as §1, §2, §3

Trypsin = assay: Peptide conjugate digestion with Trypsin; format: in vitro ADME; conditions: 37° C. for 1 hr
Protocol: as §1, §2, §3

Sequence of bovine serum albumin (BSA) (P02769 25-607): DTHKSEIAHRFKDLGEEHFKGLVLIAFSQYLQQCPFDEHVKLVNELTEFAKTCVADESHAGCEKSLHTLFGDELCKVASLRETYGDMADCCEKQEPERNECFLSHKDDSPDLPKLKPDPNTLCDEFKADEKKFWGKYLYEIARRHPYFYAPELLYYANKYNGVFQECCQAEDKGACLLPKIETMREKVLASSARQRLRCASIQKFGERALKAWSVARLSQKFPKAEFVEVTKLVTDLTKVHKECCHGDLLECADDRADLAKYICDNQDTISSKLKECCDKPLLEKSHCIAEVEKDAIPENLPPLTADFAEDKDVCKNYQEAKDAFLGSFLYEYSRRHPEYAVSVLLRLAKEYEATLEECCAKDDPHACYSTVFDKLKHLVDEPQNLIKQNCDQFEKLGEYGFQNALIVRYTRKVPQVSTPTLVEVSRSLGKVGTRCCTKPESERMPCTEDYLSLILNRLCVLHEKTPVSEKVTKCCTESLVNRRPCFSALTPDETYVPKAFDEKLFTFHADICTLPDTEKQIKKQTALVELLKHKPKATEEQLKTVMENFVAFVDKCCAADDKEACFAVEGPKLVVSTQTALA

With `NC(=O)[C@H](CC(=O)O)NC(=O)CNC(=O)[C@H](CO)NC(=O)CNC(=O)[C@H](Cc1c[nH]c2ccccc12)NC(=O)OCC1c2ccccc2-c2ccccc21` [Fmoc-WGSGD-NH2] (HELM PEPTIDE1{[O=C(OCC1c2ccccc2-c2ccccc21)[*:2]].W.G.S.G.D.[am]}$$$$V2.0) the Kd [1] was roughly 60 nM and the “fold tighter binding to BSA than Fmoc-FGSGD-NH2” value [1] was 3 fold.

`CC[C@H](C)[C@@H]1NC(=O)[C@@H]2CSCc3cc(cc(c3)CSC[C@@H](C(=O)NCC(=O)O)NC(=O)[C@H](Cc3ccccc3)NC(=O)CNC(=O)[C@H](CC(C)C)NC(=O)[C@H](CC(=O)O)NC(=O)[C@H](Cc3ccccc3)NC1=O)CSC[C@H](NC(=O)[C@H](C)N)C(=O)N[C@@H](CO)C(=O)N[C@@H](CC(=O)O)C(=O)N[C@@H](CCCNC(=N)N)C(=O)N[C@@H](Cc1ccccc1)C(=O)N[C@@H](CCCNC(=N)N)C(=O)N[C@@H](CC(N)=O)C(=O)N2` [PK15L1-CG4L1 bicyclic] (HELM PEPTIDE1{A.C.S.D.R.F.R.N.C.I.F.D.L.G.F.C.G}|CHEM1{[c1c(C[*:1])cc(C[*:3])cc1C[*:2]]}$PEPTIDE1,CHEM1,2:R3-1:R1|PEPTIDE1,CHEM1,9:R3-1:R2|PEPTIDE1,CHEM1,16:R3-1:R3$$$V2.0) showed an IC50 (Kallikrein) of 200 nM.

Work on `O=C(O)CNC(=O)OCC1c2ccccc2-c2ccccc21` [Fmoc-Gly-OH] yielded a Kd [1] of 420 nM.

`NC(=O)[C@H](CC(=O)O)NC(=O)CNC(=O)[C@H](CO)NC(=O)CNC(=O)[C@H](Cc1ccccc1)NC(=O)OCC1c2ccccc2-c2ccccc21` [Fmoc-FGSGD-NH2] (HELM PEPTIDE1{[O=C(OCC1c2ccccc2-c2ccccc21)[*:2]].F.G.S.G.D.[am]}$$$$V2.0) was tested, and the “fold tighter binding to BSA than the glycine variant Fmoc-GGSGD-NH2” value [1] was 8 fold.

In the case of `COc1ccc2c(CC(=O)O)cc(=O)oc2c1` [Mca-OH], the “binding to BSA (change in anisotropy)” value [1] is reported as “did not bind BSA”.

For `COc1ccc2c(CC(=O)NCCCCC(N)C(=O)O)cc(=O)oc2c1` (centres unmarked) [Lys-Mca], the “binding to BSA (change in anisotropy)” value [1] was “no binding”.

Work on `COc1ccc2c(CC(=O)NCCCC[C@H](NC(=O)OCC3c4ccccc4-c4ccccc43)C(=O)O)cc(=O)oc2c1` [Fmoc-Lys-Mca] yielded a Kd [1] of 340 nM.

Work on `CC[C@H](C)[C@@H]1NC(=O)[C@@H]2CSCc3cc4cc(c3)CSC[C@H](NC(=O)[C@H](CC(N)=O)NC(=O)[C@H](CCCNC(=N)N)NC(=O)[C@H](Cc3ccccc3)NC(=O)[C@H](CCCNC(=N)N)NC(=O)[C@H](CC(=O)O)NC(=O)[C@H](CO)NC(=O)[C@H](CSC4)NC(=O)[C@H](Cc3ccccc3)NC(=O)CNC(=O)[C@H](CC(C)C)NC(=O)[C@H](CC(=O)O)NC(=O)[C@H](Cc3ccccc3)NC1=O)C(=O)N1CCC[C@H]1C(=O)N[C@@H](C)C(=O)N[C@@H](CC(=O)O)C(=O)N[C@@H](CCC(=O)O)C(=O)N[C@@H](C)C(=O)N[C@@H](CC(C)C)C(=O)N2` [CG4L1-PK15L1-PK15L2 tricyclic] (HELM PEPTIDE1{A.D.E.A.L.C.I.F.D.L.G.F.C.S.D.R.F.R.N.C.P}|CHEM1{[c1c(C[*:1])cc(C[*:3])cc1C[*:2]]}$PEPTIDE1,CHEM1,6:R3-1:R1|PEPTIDE1,CHEM1,13:R3-1:R2|PEPTIDE1,CHEM1,20:R3-1:R3|PEPTIDE1,PEPTIDE1,1:R1-21:R2$$$V2.0) yielded an IC50 (Kallikrein) of 15000 nM.

With `CC[C@H](C)[C@@H]1NC(=O)[C@@H](NC(=O)[C@H](CC(C)C)NC(=O)[C@H](C)N)CSCc2cc3cc(c2)CSC[C@@H](C(=O)N2CCC[C@H]2C(=O)N[C@@H](C)C(=O)N[C@@H](CC(=O)O)C(=O)N[C@@H](CCC(=O)O)C(=O)O)NC(=O)[C@H](CC(N)=O)NC(=O)[C@H](CCCNC(=N)N)NC(=O)[C@H](Cc2ccccc2)NC(=O)[C@H](CCCNC(=N)N)NC(=O)[C@H](CC(=O)O)NC(=O)[C@H](CO)NC(=O)[C@H](CSC3)NC(=O)[C@H](Cc2ccccc2)NC(=O)CNC(=O)[C@H](CC(C)C)NC(=O)[C@H](CC(=O)O)NC(=O)[C@H](Cc2ccccc2)NC1=O` [X-CG4L1-PK15L1-Y bicyclic] (HELM PEPTIDE1{A.L.C.I.F.D.L.G.F.C.S.D.R.F.R.N.C.P.A.D.E}|CHEM1{[c1c(C[*:1])cc(C[*:3])cc1C[*:2]]}$PEPTIDE1,CHEM1,3:R3-1:R1|PEPTIDE1,CHEM1,10:R3-1:R2|PEPTIDE1,CHEM1,17:R3-1:R3$$$V2.0) the IC50 (Kallikrein) was 15000 nM, the “digestion with Cathepsin G” value (Cathepsin G; 0.01 μg enzyme per reaction) was “+++” and the “digestion with Cathepsin G” value (Cathepsin G; 0.1 μg enzyme per reaction) was “+++”. For the same compound, the “digestion with Chymotrypsin” value (Chymotrypsin; 0.01 μg enzyme per reaction) was “+++”, the “digestion with Chymotrypsin” value (Chymotrypsin; 10 μg enzyme per reaction) was “−” and the “digestion with Kalikrein” value (Kalikrein; 0.01 μg enzyme per reaction) was “+++”. For the same compound, the “digestion with Kalikrein” value (Kalikrein; 0.1 μg enzyme per reaction) was “+++”, the “digestion with Pronase” value (Pronase; 0.01 μg enzyme per reaction) was “+++” and the “digestion with Pronase” value (Pronase; 0.1 μg enzyme per reaction) was “+++”. For the same compound, the “digestion with Pronase” value (Pronase; 1 μg enzyme per reaction) was “+++”, the “digestion with Subtilisin” value (Subtilisin; 0.009 μg enzyme per reaction) was “+++” and the “digestion with Subtilisin” value (Subtilisin; 9 μg enzyme per reaction) was “−”. The “digestion with Trypsin” value (Trypsin; 0.01 μg enzyme per reaction) was “+++” and the “digestion with Trypsin” value (Trypsin; 10 μg enzyme per reaction) was “−”.
